Test results from PubChem BioAssay AID1259407 (Chemical Carcinogenesis Research Information System (CCRIS), 2018).
Entries after “also recorded” stand apart in the source; their conditions may differ. Activity calls are given as the source filed them. How the calls were made is not given here.

Tested on: CCRIS mutagenicity, Ames/micronucleus/aberration tests
Assay: CCRIS mutagenicity studies
[1] = Test System: AMES SALMONELLA TYPHIMURIUM, Strain/Indicator: TA98, Metabolic Activation: RAT, LIVER, S-9, AROCLOR 1254, Method: STANDARD PLATE
[2] = Test System: AMES SALMONELLA TYPHIMURIUM, Strain/Indicator: TA100, Metabolic Activation: NONE, Method: STANDARD PLATE
[3] = Test System: AMES SALMONELLA TYPHIMURIUM, Strain/Indicator: TA100, Metabolic Activation: RAT, LIVER, S-9, AROCLOR 1254, Method: STANDARD PLATE

SMILES: CC(O)CCC(=O)c1ccoc1 (configuration not stated)
- mutagenic call (Test System: AMES SALMONELLA TYPHIMURIUM, Strain/Indicator: TA98, Metabolic Activation: HAMSTER, LIVER, S-9, AROCLOR 1254, Method: STANDARD PLATE): inactive; negative
- mutagenic call (Test System: AMES SALMONELLA TYPHIMURIUM, Strain/Indicator: TA98, Metabolic Activation: NONE, Method: STANDARD PLATE): inactive; negative
- mutagenic call [1]: inactive; negative
- mutagenic call (Test System: AMES SALMONELLA TYPHIMURIUM, Strain/Indicator: TA100, Metabolic Activation: HAMSTER, LIVER, S-9, AROCLOR 1254, Method: STANDARD PLATE): inactive; negative
- mutagenic call [2]: inactive; negative
- mutagenic call [3]: inactive; negative
- mutagenic call (Test System: AMES SALMONELLA TYPHIMURIUM, Strain/Indicator: TA1535, Metabolic Activation: HAMSTER, LIVER, S-9, AROCLOR 1254, Method: STANDARD PLATE): inactive; negative
- mutagenic call (Test System: AMES SALMONELLA TYPHIMURIUM, Strain/Indicator: TA1535, Metabolic Activation: NONE, Method: STANDARD PLATE): inactive; negative
- mutagenic call (Test System: AMES SALMONELLA TYPHIMURIUM, Strain/Indicator: TA1535, Metabolic Activation: RAT, LIVER, S-9, AROCLOR 1254, Method: STANDARD PLATE): inactive; negative
- mutagenic call (Test System: AMES SALMONELLA TYPHIMURIUM, Strain/Indicator: TA1537, Metabolic Activation: HAMSTER, LIVER, S-9, AROCLOR 1254, Method: STANDARD PLATE): inactive; negative
- mutagenic call (Test System: AMES SALMONELLA TYPHIMURIUM, Strain/Indicator: TA1537, Metabolic Activation: NONE, Method: STANDARD PLATE): inactive; negative
- mutagenic call (Test System: AMES SALMONELLA TYPHIMURIUM, Strain/Indicator: TA1537, Metabolic Activation: RAT, LIVER, S-9, AROCLOR 1254, Method: STANDARD PLATE): inactive; negative
- mutagenic call (Test System: AMES SALMONELLA TYPHIMURIUM, Strain/Indicator: TA1538, Metabolic Activation: HAMSTER, LIVER, S-9, AROCLOR 1254, Method: STANDARD PLATE): inactive; negative
- mutagenic call (Test System: AMES SALMONELLA TYPHIMURIUM, Strain/Indicator: TA1538, Metabolic Activation: NONE, Method: STANDARD PLATE): inactive; negative
- mutagenic call (Test System: AMES SALMONELLA TYPHIMURIUM, Strain/Indicator: TA1538, Metabolic Activation: RAT, LIVER, S-9, AROCLOR 1254, Method: STANDARD PLATE): inactive; negative

SMILES: COc1cc2c(c3oc4cccc(OC(C)=O)c4c(=O)c13)C1C=COC1O2 (configuration not stated)
- mutagenic call (Test System: AMES SALMONELLA TYPHIMURIUM, Strain/Indicator: TA98, Metabolic Activation: RAT, LIVER, S-9, PHENOBARBITAL, Method: STANDARD PLATE): inactive; negative
- mutagenic call (Test System: AMES SALMONELLA TYPHIMURIUM, Strain/Indicator: TA100, Metabolic Activation: RAT, LIVER, S-9, PHENOBARBITAL, Method: STANDARD PLATE): active; positive

SMILES: COc1ccc2c(c1OC)c(=O)n(C)c1c3cc4c(cc3ccc21)OCO4
- mutagenic call (Test System: AMES SALMONELLA TYPHIMURIUM, Strain/Indicator: TA100, Metabolic Activation: RAT, LIVER, S-9, PHENOBARBITAL AND BETA-NAPHTHOFLAVONE, Method: PREINCUBATION): active; positive

SMILES: COc1ccc2nc(S(=O)Cc3ncc(C)c(OC)c3C)[nH]c2c1 (configuration not stated)
- mutagenic call (End Point: IN VITRO MICRONUCLEUS, Test System: AHH-1 CELLS, Metabolic Activation: NONE): active; positive
- mutagenic call (End Point: IN VITRO MICRONUCLEUS, Test System: HEPATOCYTES, Species: RAT, Strain/Sex: SPRAGUE-DAWLEY/FEMALE, Metabolic Activation: NONE): active; positive; at 33 mg dose in 50% of rats
- mutagenic call (End Point: IN VITRO MICRONUCLEUS, Test System: HUMAN LYMPHOCYTES, Metabolic Activation: NONE): active; positive (in 4/5 donors); also recorded: active; positive; only at 18 ug/ml and 1 of 2 donors
- mutagenic call (End Point: IN VITRO MICRONUCLEUS, Test System: MCL-5 CELLS, Metabolic Activation: NONE): active; positive
- mutagenic call (End Point: IN VIVO MICRONUCLEUS, Test System: BONE MARROW POLYCHROMATIC ERYTHROCYTES, Species: RAT, Strain/Sex: SPRAGUE-DAWLEY/FEMALE, Route: ORAL): inactive; negative; some increase but not statistically significant
- mutagenic call (End Point: IN VIVO MICRONUCLEUS, Test System: HEPATOCYTES, Species: RAT, Strain/Sex: SPRAGUE-DAWLEY/FEMALE, Route: ORAL): active; positive

SMILES: c1ccncc1
- mutagenic call (Test System: AMES SALMONELLA TYPHIMURIUM, Strain/Indicator: TA98, Metabolic Activation: HAMSTER LIVER S-9, AROCLOR 1254, 10%, Method: PREINCUBATION): inactive; negative
- mutagenic call (Test System: AMES SALMONELLA TYPHIMURIUM, Strain/Indicator: TA98, Metabolic Activation: NONE, Method: PREINCUBATION): inactive; negative
- mutagenic call (Test System: AMES SALMONELLA TYPHIMURIUM, Strain/Indicator: TA98, Metabolic Activation: RAT LIVER S-9, AROCLOR 1254, 10%, Method: PREINCUBATION): inactive; negative
- mutagenic call (Test System: AMES SALMONELLA TYPHIMURIUM, Strain/Indicator: TA98, Metabolic Activation: RAT LIVER S-9, PHENOBARBITAL AND BETA-NAPHTHOFLAVONE, Method: PREINCUBATION): inactive; negative
- mutagenic call (Test System: AMES SALMONELLA TYPHIMURIUM, Strain/Indicator: TA98, Metabolic Activation: RAT, LIVER, S-9, AROCLOR 1254, Method: PREINCUBATION): inactive; negative
- mutagenic call (Test System: AMES SALMONELLA TYPHIMURIUM, Strain/Indicator: TA100, Metabolic Activation: HAMSTER LIVER S-9, AROCLOR 1254, 10%, Method: PREINCUBATION): inactive; negative
- mutagenic call (Test System: AMES SALMONELLA TYPHIMURIUM, Strain/Indicator: TA100, Metabolic Activation: NONE, Method: PREINCUBATION): inactive; negative
- mutagenic call (Test System: AMES SALMONELLA TYPHIMURIUM, Strain/Indicator: TA100, Metabolic Activation: RAT LIVER S-9, AROCLOR 1254, 10%, Method: PREINCUBATION): inactive; negative
- mutagenic call (Test System: AMES SALMONELLA TYPHIMURIUM, Strain/Indicator: TA100, Metabolic Activation: RAT LIVER S-9, PHENOBARBITAL AND BETA-NAPHTHOFLAVONE, Method: PREINCUBATION): inactive; negative
- mutagenic call (Test System: AMES SALMONELLA TYPHIMURIUM, Strain/Indicator: TA100, Metabolic Activation: RAT, LIVER, S-9, AROCLOR 1254, Method: PREINCUBATION): inactive; negative
- mutagenic call (Test System: AMES SALMONELLA TYPHIMURIUM, Strain/Indicator: TA102, Metabolic Activation: NONE, Method: PREINCUBATION): inactive; negative
- mutagenic call (Test System: AMES SALMONELLA TYPHIMURIUM, Strain/Indicator: TA102, Metabolic Activation: RAT, LIVER, S-9, AROCLOR 1254, Method: PREINCUBATION): inactive; negative
- mutagenic call (Test System: AMES SALMONELLA TYPHIMURIUM, Strain/Indicator: TA1535, Metabolic Activation: HAMSTER LIVER S-9, AROCLOR 1254, 10%, Method: PREINCUBATION): inactive; negative
- mutagenic call (Test System: AMES SALMONELLA TYPHIMURIUM, Strain/Indicator: TA1535, Metabolic Activation: NONE, Method: PREINCUBATION): inactive; negative
- mutagenic call (Test System: AMES SALMONELLA TYPHIMURIUM, Strain/Indicator: TA1535, Metabolic Activation: RAT LIVER S-9, AROCLOR 1254, 10%, Method: PREINCUBATION): inactive; negative
- mutagenic call (Test System: AMES SALMONELLA TYPHIMURIUM, Strain/Indicator: TA1535, Metabolic Activation: RAT LIVER S-9, PHENOBARBITAL AND BETA-NAPHTHOFLAVONE, Method: PREINCUBATION): inactive; negative
- mutagenic call (Test System: AMES SALMONELLA TYPHIMURIUM, Strain/Indicator: TA1537, Metabolic Activation: HAMSTER LIVER S-9, AROCLOR 1254, 10%, Method: PREINCUBATION): inactive; negative
- mutagenic call (Test System: AMES SALMONELLA TYPHIMURIUM, Strain/Indicator: TA1537, Metabolic Activation: NONE, Method: PREINCUBATION): inactive; negative
- mutagenic call (Test System: AMES SALMONELLA TYPHIMURIUM, Strain/Indicator: TA1537, Metabolic Activation: RAT LIVER S-9, AROCLOR 1254, 10%, Method: PREINCUBATION): inactive; negative
- mutagenic call (Test System: AMES SALMONELLA TYPHIMURIUM, Strain/Indicator: TA1537, Metabolic Activation: RAT LIVER S-9, PHENOBARBITAL AND BETA-NAPHTHOFLAVONE, Method: PREINCUBATION): inactive; negative
- mutagenic call (Test System: E.COLI, Strain/Indicator: WP2UVRA, Metabolic Activation: NONE, Method: PREINCUBATION): inactive; negative
- mutagenic call (Test System: E.COLI, Strain/Indicator: WP2UVRA, Metabolic Activation: RAT LIVER S-9, PHENOBARBITAL AND BETA-NAPHTHOFLAVONE, Method: PREINCUBATION): inactive; negative
- mutagenic call (Test System: MOUSE LYMPHOMA, Strain/Indicator: L5178Y (TK+/TK-), Metabolic Activation: NONE, Method: SUSPENSION/PLATE): inactive; negative
- mutagenic call (Test System: MOUSE LYMPHOMA, Strain/Indicator: L5178Y (TK+/TK-), Metabolic Activation: RAT LIVER S-9, AROCLOR 1254, Method: SUSPENSION/PLATE): inactive; negative
- mutagenic call (Test System: UDS MOUSE HEPATOCYTES, Strain/Indicator: THYMIDINE INCORPORATION, Metabolic Activation: NONE, Method: IN VIVO/AUTORADIOGRAPHY): inactive; negative

SMILES: O=C1C=C(Cl)C(=O)C1(Cl)Cl
- mutagenic call [2]: active; positive

SMILES: c1ccc2c(c1)ccc1cc3cnccc3cc12
- mutagenic call [1]: active; positive
- mutagenic call [3]: active; positive
